Measurements taken from ChEMBL document CHEMBL1132591, “Synthesis of retinoid X receptor-specific ligands that are potent inducers of adipogenesis in 3T3-L1 cells” (J Med Chem, 1999).

Assays:
[1] = molecular target: T1, Retinoic acid receptor RXR-gamma (Homo sapiens, UniProt P48443); assay: Transcriptional activity was evaluated in CV-1 cells transfected with expression vector for Retinoic acid receptor RXR-gamma; assay type: functional, cell-based
T1 sequence (P48443 whole entry): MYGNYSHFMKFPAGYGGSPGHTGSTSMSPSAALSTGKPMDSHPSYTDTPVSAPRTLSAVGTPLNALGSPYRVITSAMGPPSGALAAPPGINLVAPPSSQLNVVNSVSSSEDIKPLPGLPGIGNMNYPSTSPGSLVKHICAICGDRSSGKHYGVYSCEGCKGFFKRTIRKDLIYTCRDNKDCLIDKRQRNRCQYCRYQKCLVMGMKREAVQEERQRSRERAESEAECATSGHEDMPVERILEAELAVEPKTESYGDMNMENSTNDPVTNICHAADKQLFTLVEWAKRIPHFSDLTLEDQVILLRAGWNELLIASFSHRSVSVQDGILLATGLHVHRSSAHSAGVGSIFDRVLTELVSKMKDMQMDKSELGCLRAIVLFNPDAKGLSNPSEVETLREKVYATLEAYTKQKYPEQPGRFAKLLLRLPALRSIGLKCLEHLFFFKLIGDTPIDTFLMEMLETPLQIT

[2] = molecular target: T1, Retinoic acid receptor RXR-gamma; assay: Binding affinity towards recombinantly expressed Retinoic acid receptor RXR-gamma in baculoviral system, by using 5 nM [3H]targretin in a competitive binding assay
[3] = molecular target: T2, Retinoic acid receptor RXR-beta (Homo sapiens, UniProt P28702); assay: Binding affinity towards recombinantly expressed Retinoic acid receptor RXR-beta in baculoviral system, by using 5 nM [3H]targretin in a competitive binding assay
T2 sequence (P28702 whole entry): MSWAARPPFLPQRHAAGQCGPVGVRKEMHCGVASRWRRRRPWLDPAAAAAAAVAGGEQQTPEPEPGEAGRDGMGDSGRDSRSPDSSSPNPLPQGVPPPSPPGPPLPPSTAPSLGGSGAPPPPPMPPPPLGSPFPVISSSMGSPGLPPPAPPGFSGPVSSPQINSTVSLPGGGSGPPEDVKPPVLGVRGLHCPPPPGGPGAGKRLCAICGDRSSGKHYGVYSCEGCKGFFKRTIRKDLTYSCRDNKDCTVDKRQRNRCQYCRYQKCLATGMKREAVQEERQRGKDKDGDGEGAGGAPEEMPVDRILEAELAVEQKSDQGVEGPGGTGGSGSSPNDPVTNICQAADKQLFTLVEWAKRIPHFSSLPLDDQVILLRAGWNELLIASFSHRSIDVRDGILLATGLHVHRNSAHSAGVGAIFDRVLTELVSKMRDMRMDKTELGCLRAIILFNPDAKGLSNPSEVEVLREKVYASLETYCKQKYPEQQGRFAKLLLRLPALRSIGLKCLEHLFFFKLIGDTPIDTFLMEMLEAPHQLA

[4] = molecular target: T2, Retinoic acid receptor RXR-beta; assay: Transcriptional activity was evaluated in CV-1 cells transfected with expression vector for Retinoic acid receptor RXR-beta; assay type: functional, cell-based
[5] = molecular target: T3, Retinoic acid receptor RXR-alpha (Homo sapiens, UniProt P19793); assay: Transcriptional activity was evaluated in CV-1 cells transfected with expression vector for Retinoic acid receptor RXR-alpha; assay type: functional, cell-based
T3 sequence (P19793 whole entry): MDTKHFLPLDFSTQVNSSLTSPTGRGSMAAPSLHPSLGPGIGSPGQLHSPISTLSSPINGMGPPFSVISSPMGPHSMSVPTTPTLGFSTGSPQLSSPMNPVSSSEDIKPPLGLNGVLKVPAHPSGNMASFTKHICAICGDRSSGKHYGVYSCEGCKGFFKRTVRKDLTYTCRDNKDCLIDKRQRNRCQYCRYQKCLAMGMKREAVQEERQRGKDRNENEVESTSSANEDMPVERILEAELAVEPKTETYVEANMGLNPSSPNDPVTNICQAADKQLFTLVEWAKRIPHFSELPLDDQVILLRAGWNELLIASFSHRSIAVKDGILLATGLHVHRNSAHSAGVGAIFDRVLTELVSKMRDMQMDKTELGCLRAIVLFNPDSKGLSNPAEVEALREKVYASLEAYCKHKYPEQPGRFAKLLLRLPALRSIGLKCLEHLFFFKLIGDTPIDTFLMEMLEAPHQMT

[6] = molecular target: T3, Retinoic acid receptor RXR-alpha; assay: Binding affinity towards recombinantly expressed Retinoic acid receptor RXR-alpha in baculoviral system, by using 5 nM [3H]targretin in a competitive binding assay
[7] = molecular target: T4, Retinoic acid receptor alpha (Homo sapiens) (UniProt P10276); assay: Percent transcriptional activation relative to ATRA in CV-1 cells expressing Retinoic acid receptor RAR alpha; assay type: functional, cell-based
T4 sequence (whole entry): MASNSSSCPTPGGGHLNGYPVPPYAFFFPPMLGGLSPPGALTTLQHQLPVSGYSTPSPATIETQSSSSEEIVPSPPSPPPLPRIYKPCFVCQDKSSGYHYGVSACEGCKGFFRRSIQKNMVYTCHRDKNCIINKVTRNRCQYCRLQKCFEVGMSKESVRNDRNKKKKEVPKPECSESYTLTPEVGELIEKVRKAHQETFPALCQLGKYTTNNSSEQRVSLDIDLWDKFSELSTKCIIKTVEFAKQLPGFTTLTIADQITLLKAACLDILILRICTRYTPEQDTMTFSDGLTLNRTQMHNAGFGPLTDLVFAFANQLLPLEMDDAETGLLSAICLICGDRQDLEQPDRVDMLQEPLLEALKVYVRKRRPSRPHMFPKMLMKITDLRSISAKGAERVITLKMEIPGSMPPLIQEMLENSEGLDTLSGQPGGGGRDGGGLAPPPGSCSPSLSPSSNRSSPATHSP

[8] = molecular target: T5, Retinoic acid receptor RXR-beta (Homo sapiens) (UniProt P28702); assay: Percent transcriptional activation relative to ATRA in CV-1 cells expressing Retinoid X receptor RXR beta; assay type: functional, cell-based
T5 sequence (whole entry): T2 sequence (P28702 whole entry)

[9] = molecular target: T6, Retinoic acid receptor gamma (Homo sapiens) (UniProt P13631); assay: Percent transcriptional activation relative to ATRA in CV-1 cells expressing Retinoic acid receptor RAR gamma; assay type: functional, cell-based
T6 sequence (whole entry): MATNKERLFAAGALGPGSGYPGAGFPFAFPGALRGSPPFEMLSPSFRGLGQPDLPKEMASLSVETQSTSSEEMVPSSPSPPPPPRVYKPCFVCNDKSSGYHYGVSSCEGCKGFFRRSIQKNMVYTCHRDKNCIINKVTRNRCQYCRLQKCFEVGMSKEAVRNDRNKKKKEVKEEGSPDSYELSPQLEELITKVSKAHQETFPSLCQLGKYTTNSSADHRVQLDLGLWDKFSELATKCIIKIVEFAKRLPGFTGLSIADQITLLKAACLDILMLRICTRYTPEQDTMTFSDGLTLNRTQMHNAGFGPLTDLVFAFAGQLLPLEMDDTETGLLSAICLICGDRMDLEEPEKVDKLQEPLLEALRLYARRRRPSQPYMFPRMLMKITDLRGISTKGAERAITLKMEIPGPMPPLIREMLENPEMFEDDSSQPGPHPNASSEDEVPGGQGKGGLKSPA

[10] = molecular target: T7, Retinoic acid receptor beta (Homo sapiens) (UniProt P10826); assay: Percent transcriptional activation relative to ATRA in CV-1 cells expressing Retinoic acid receptor RAR beta; assay type: functional, cell-based
T7 sequence (whole entry): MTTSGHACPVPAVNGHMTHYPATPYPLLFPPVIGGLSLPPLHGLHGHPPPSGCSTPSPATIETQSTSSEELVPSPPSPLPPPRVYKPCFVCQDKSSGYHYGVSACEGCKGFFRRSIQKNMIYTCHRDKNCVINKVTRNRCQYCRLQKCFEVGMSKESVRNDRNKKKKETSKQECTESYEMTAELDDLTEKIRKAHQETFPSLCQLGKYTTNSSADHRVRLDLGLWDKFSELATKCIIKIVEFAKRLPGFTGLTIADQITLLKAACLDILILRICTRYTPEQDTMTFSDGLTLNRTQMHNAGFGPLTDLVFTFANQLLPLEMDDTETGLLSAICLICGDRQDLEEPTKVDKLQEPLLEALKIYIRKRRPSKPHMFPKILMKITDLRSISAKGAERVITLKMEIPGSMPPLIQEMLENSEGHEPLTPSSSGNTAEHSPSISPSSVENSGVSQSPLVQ

Row | Compound | EC50 [1] | Ki [2] | Ki [3] | EC50 [4] | EC50 [5] | Ki [6] | Efficacy [7] | Efficacy [8] | Efficacy [9] | Efficacy [10]
1 | CO/N=C(/c1ccc(C(=O)O)cc1)c1ccc2c(c1)C(C)(C)CCC2(C)C | 206 nM | 558 nM | 363 nM | 207 nM | 253 nM | > 1000 nM | – | – | – | –
2 | Cc1cc2c(cc1/C(=N/O)c1ccc(C(=O)O)cc1)C(C)(C)CCC2(C)C | 7 nM | 5 nM | 5 nM | 14 nM | – | – | 6% | 81% | 13% | 10%
3 | CCCO/N=C(\c1ccc(C(=O)O)cc1)c1cc2c(cc1C)C(C)(C)CCC2(C)C | 28 nM | 57 nM | 61 nM | 37 nM | 32 nM | 6 nM | – | – | – | –
4 | CCCCO/N=C(\c1ccc(C(=O)O)cc1)c1cc2c(cc1C)C(C)(C)CCC2(C)C | 99 nM | 224 nM | 283 nM | 157 nM | 86 nM | 177 nM | – | – | – | –
5 | CC1(C)CCC(C)(C)c2cc(/C(=N/O)c3ccc(C(=O)O)cc3)ccc21 | 2890 nM | 5050 nM | 3360 nM | > 10000 nM | 2960 nM | 4230 nM | – | – | – | –
6 | CCO/N=C(/c1ccc(C(=O)O)cc1)c1cc2c(cc1C)C(C)(C)CCC2(C)C | > 10000 nM | 467 nM | > 1000 nM | > 10000 nM | > 10000 nM | 620 nM | – | – | – | –
7 | CO/N=C(/c1ccc(C(=O)O)cc1)c1cc2c(cc1C)C(C)(C)CCC2(C)C | 254 nM | 238 nM | > 1000 nM | 377 nM | 384 nM | 394 nM | – | – | – | –
8 | Cc1cc2c(cc1/C(=N\O)c1ccc(C(=O)O)cc1)C(C)(C)CCC2(C)C | 34 nM | 209 nM | 120 nM | 165 nM | – | – | – | – | – | –
9 | Cc1cc2c(cc1/C(=N/OCC#N)c1ccc(C(=O)O)cc1)C(C)(C)CCC2(C)C | 11 nM | 14 nM | 14 nM | 25 nM | 12 nM | 11 nM | – | – | – | –
10 | CC1(C)CCC(C)(C)c2cc(/C(=N/O)c3ccc(C(=O)O)cc3)c(Br)cc21 | 26 nM | 57 nM | 6 nM | 32 nM | 27 nM | 12 nM | – | – | – | –
11 | CCO/N=C(\c1ccc(C(=O)O)cc1)c1cc2c(cc1C)C(C)(C)CCC2(C)C | 9 nM | 42 nM | 58 nM | 12 nM | 5 nM | 26 nM | – | – | – | –
12 | Cc1cc2c(cc1/C(=N/OC(C)(C)C)c1ccc(C(=O)O)cc1)C(C)(C)CCC2(C)C | > 10000 nM | 445 nM | 623 nM | > 10000 nM | > 10000 nM | 484 nM | – | – | – | –
13 | Cc1cc2c(cc1/C(=N/OCCN)c1ccc(C(=O)O)cc1)C(C)(C)CCC2(C)C | 306 nM | > 1000 nM | > 1000 nM | 61 nM | 350 nM | > 1000 nM | – | – | – | –
14 | C=CCO/N=C(\c1ccc(C(=O)O)cc1)c1cc2c(cc1C)C(C)(C)CCC2(C)C | 7 nM | 80 nM | 15 nM | 18 nM | 6 nM | 7 nM | – | – | – | –
15 | Cc1cc2c(cc1/C(=N/OCC(=O)O)c1ccc(C(=O)O)cc1)C(C)(C)CCC2(C)C | 1380 nM | > 1000 nM | > 1000 nM | 1380 nM | 713 nM | > 1000 nM | – | – | – | –
16 | Cc1cc2c(cc1/C(=N\OC(C)(C)C)c1ccc(C(=O)O)cc1)C(C)(C)CCC2(C)C | > 10000 nM | > 1000 nM | > 1000 nM | > 10000 nM | > 10000 nM | > 1000 nM | – | – | – | –
